Counter-ions that a name gives are not always drawn. Like-named read-outs stand apart in the source and are kept apart here.
Key:
[1] = test system: collagen-induced aggregation (platelet-rich plasma); experiment: Born test, rat ex vivo, collagen-induced aggregation; type: in vivo; settings: 1 hour after administration, optical density
Procedure: (b) Born test, rat ex vivo, collagen-induced aggregation
The following forms were tested:
The test compound was administered by esophageal tube in the form of an aqueous solution or, in the case of compound A in the form of a tylose suspension, to conscious rats weighing about 450 g. After 1 hour, blood was taken from the abdominal aorta of the animals (which had previously been anesthetized with pentobarbital sodium). The platelet-rich plasma obtained by centrifuging was pooled. The controls were three animals which had not been given any of the test compound. The method of taking blood and preparing the plasma was the same for both groups. The anticoagulant used was 2% sodium citrate in a volume ratio of 1+9.
All the testing was carried out one hour after the administration of the test compound.

stomach of the rat = experiment: ulcerogenic effect on the stomach of the rat; type: in vivo
rat = experiment: edema test (antiphlogistic effect); type: in vivo; settings: for powerful antiphlogistic effect, dose range: p.o. in the rat (edema test)
[2] = test system: collagen-induced thrombocyte aggregation; experiment: Born test, collagen-induced aggregation (platelet-rich plasma); type: cell-based, human (healthy test subjects); settings: for inhibition at 10 µM: 10^-5 Mol/l; for inhibition at 1 µM: 10^-6 Mol/l
Procedure: The compounds were tested for their inhibiting effects in blood platelet aggregation induced by collagen and their effect of prolonging the bleeding time in mice. The compounds were also tested for their acute toxicity.
(a) Born test, collagen-induced aggregation
The thrombocyte aggregation was measured on platelet-rich plasma from healthy test subjects using the method of BORN and CROSS (J. Physiol. 170, 397 [1964]). The decrease in optical density of the platelet suspensions after the addition of collagen was measured photometrically and recorded. The rate of aggregation was deduced from the angle of inclination of the density curve. The point on the curve at which there is maximum light transmittance was used to calculate the "optical density". The quantity of collagen was selected so as to obtain an irreversible control curve.
The figures given refer to the optical density and indicate the percentage change in light transmittance (=% attenuation of aggregation) under the effect of the test substance, compared with the control.
Standard commercial collagen made by Hormon-Chemie of Munich was used.

[3] = Determination of acute toxicity; type: in vivo; settings: mouse, in vivo; oral, mice; printed ">>1000 mg/kg"
Procedure: (§1) (d) Determination of acute toxicity
(§2) The acute toxicity was determined after oral administration to male and female mice. The compounds were administered as a suspension in tylose.
(§3) The following table indicates the number of animals which died within 1, 7 and 14 days after receiving the doses stated: […]

mice = experiment: Determination of acute toxicity; type: in vivo
Procedure: as §1, §2, §3

bleeding time in mice = experiment: Determination of the bleeding time in mice (method of DUKE); type: in vivo, mouse (NMRI Biberach)
Procedure: (c) Determination of the bleeding time in mice
The bleeding time was measured on unanesthetized female mice weighing from 20 to 25 g by the method of DUKE (J. Amer. Med. Assoc.) 15, 1187, 1910). About 0.5 mm of the tip of the animals' tail was cut off, and the blood escaping was carefully wiped away with a strip of filter paper at 30 second intervals. The number of drops of blood thus obtained provided a measurement of the bleeding time. The normal bleeding time in mice is 4.1 minutes on average.
Strain of animals: NMRI Biberach
Number of animals per test: 5
The test compound was administered by esophageal tube one hour before the measurement.

[4] = Homo sapiens, optical density, read-out: BORN test [= % reduction in aggregation]
[5] = Homo sapiens, Table I, read-out: IC50 (50% reduction in aggregation)
[6] = 250 mg/kg oral, of 10 animals (A) or 5 animals (B, Y, Z)
[7] = 1000 mg/kg oral, of 10 animals (A) or 5 animals (B)
[8] = Homo sapiens, as stated in text on Table I, read-out: concentration giving a 50% reduction in aggregation

Compound	percentage inhibition of aggregation ([1]; 0.0125 mg/kg p.o.)	percentage inhibition of aggregation ([1]; 0.025 mg/kg p.o.)	percentage inhibition of aggregation ([1]; 0.05 mg/kg p.o.)	ulcerogenic effect (stomach of the rat)	inhibition at 10 µM [2, 4]	IC50 [2, 5]	Animals which died during the observation period, 1 day (mice; [6])	Animals which died during the observation period, 7 days (mice; [6])	Animals which died during the observation period, 14 days (mice; [6])	also measured
CN1C(C(=O)Nc2cncc(Cl)n2)=C(O)c2ccccc2S1(=O)=O [C, Sodium salt of N-(6-chloro-pyrazin-2-yl)-4-hydroxy-2-methyl-2H-1,2-benzothiazine-3-carboxamide-1,1-dioxide]	0%	32%	96%							percentage inhibition of aggregation ([1]; 0.125 mg/kg p.o.): 100%; percentage inhibition of aggregation ([1]; 0.25 mg/kg p.o.): 100%; percentage inhibition of aggregation ([1]; 0.5 mg/kg p.o.): 100%
CN1C(C(=O)Nc2cncc(Cl)n2)=C(O)c2ccccc2S1(=O)=O [Compound A, N-(6-Chloro-pyrazin-2-yl)-4-hydroxy-2-methyl-2H-1,2-benzothiazine-3-carboxamide-1,1-dioxide]				no ulcerogenic effect up to 100 mg/kg	95%	470 nM	0	0	0	ED35 (rat; Rattus norvegicus, po, edema test): > 200 mg/kg; antiphlogistic effect (rat; edema test): no antiphlogistic effect; inhibition at 1 µM [2, 4]: 71%; inhibition at 0.1 µM ([2]; Homo sapiens, 10^-7 Mol/l, optical density, read-out: BORN test [= % reduction in aggregation]): 6%; concentration leading to a 50% reduction compared with prior art compounds Y and Z ([2]; comparison with Y and Z): about one tenth power lower; percentage inhibition of aggregation ([1]; 0.125 mg/kg p.o.): 14%; inhibition at 0.25 mg/kg ([1]; Rattus norvegicus, po, 1 h, 0.25 mg/kg p.o., read-out: percentage inhibition of aggregation): 93%; inhibition at 0.5 mg/kg ([1]; Rattus norvegicus, po, 1 h, 0.5 mg/kg p.o., read-out: percentage inhibition of aggregation): 86%; LD50 at 336 h [3]: > 1000 mg/kg; Animals which died during the observation period, 1 day (mice; [7]): 0; Animals which died during the observation period, 7 days (mice; [7]): 0; Animals which died during the observation period, 14 days (mice; [7]): 0
CN1C(C(=O)Nc2cncc(Cl)n2)=C(O)c2ccccc2S1(=O)=O [Compound B, Potassium salt of N-(6-chloro-pyrazin-2-yl)-4-hydroxy-2-methyl-2H-1,2-benzothiazine-3-carboxamide-1,1-dioxide]	26%	86%	100%				0	0	0	Animals which died during the observation period, 1 day (mice; [7]): 0; Animals which died during the observation period, 7 days (mice; [7]): 1; Animals which died during the observation period, 14 days (mice; [7]): 1
CN1C(C(=O)Nc2cncc(Cl)n2)=C(O)c2ccccc2S1(=O)=O [D, Tetramethylammonium salt of N-(6-chloro-pyrazin-2-yl)-4-hydroxy-2-methyl-2H-1,2-benzothiazine-3-carboxamide-1,1-dioxide]	27%	20%	97%							
CN1C(C(=O)Nc2cncc(Cl)n2)=C(O)c2ccccc2S1(=O)=O [E, Ethanolamine salt of N-(6-chloropyrazin-2-yl)-4-hydroxy-2-methyl-2H-1,2-benzothiazine-3-carboxamide-1,1-dioxide]	10%	53%	87%							
CN1C(C(=O)Nc2cncc(Cl)n2)=C(O)c2ccccc2S1(=O)=O [F, Calcium salt of N-(6-chloro-pyrazin-2-yl)-4-hydroxy-2-methyl-2H-1,2-benzothiazine-3-carboxamide-1,1-dioxide]	27%	64%	77%							
CN1C(C(=O)Nc2cncc(Cl)n2)=C(O)c2ccccc2S1(=O)=O [G, Ammonium salt of N-(6-chloro-pyrazin-2-yl)-4-hydroxy-2-methyl-2H-1,2-benzothiazine-3-carboxamide-1,1-dioxide]	7%	36%	92%							
CN1C(C(=O)Nc2ccccn2)=C(O)c2ccccc2S1(=O)=O [Y, 4-hydroxy-2-methyl-N-(2-pyridyl)-2H-1,2-benzothiazine-3-carboxamide-1,1-dioxide]				strong ulcerogenic effect	85%	2000 nM	0	3	3	powerful antiphlogistic effect, dose range (rat): 1 to 5 mg/kg; side effects (bleeding time in mice; 10 mg/kg): already show side effects; inhibition at 1 µM [2, 4]: 39%; IC50 [2, 8]: 2000 nM
CN1C(C(=O)Nc2cnccn2)=C(O)c2ccccc2S1(=O)=O [Z, 4-hydroxy-2-methyl-N-(2-pyrazinyl)-2H-1,2-benzothiazine-3-carboxamide-1,1-dioxide]				strong ulcerogenic effect	15%	> 10000 nM	1	4	4	powerful antiphlogistic effect, dose range (rat): 1 to 5 mg/kg; Prolongation of bleeding time (bleeding time in mice; 10 mg/kg by esophageal tube, one hour before the measurement): +62%; IC50 [2, 8]: > 10000 nM

Reference: patent US4533664A, “Antithrombotic N-(6-chloro-pyrazin-2-yl)-4-Hydroxy-2H-1,2-benzothiazine-3-carboxamide-1 ,1-dioxide derivatives, composition, and method of use” (Dr. Karl Thomae Gesellschaft mit beschrankter Haftung, priority 1982, dated 1985)
